Results from ChEMBL document CHEMBL5325400 (Eur J Med Chem, 2023).

Assays:
Format in all cases: functional, cell-based
SK-OV-3 = test: Antiproliferative activity against human SK-OV-3 cells assessed as inhibition of cell growth measured after 48 hrs by MTT assay; conditions: SK-OV-3, 48 h
B16-F10 = test: Antiproliferative activity against mouse B16-F10 cells assessed as inhibition of cell growth measured after 48 hrs by MTT assay; conditions: B16-F10, 48 h
HepG2 = test: Antiproliferative activity against human HepG2 cells assessed as inhibition of cell growth measured after 48 hrs by MTT assay; conditions: HepG2, 48 h
MDA-MB-231 = test: Antiproliferative activity against human MDA-MB-231 cells assessed as inhibition of cell growth measured after 48 hrs by MTT assay; conditions: MDA-MB-231, 48 h
A549 = test: Antiproliferative activity against human A549 cells assessed as inhibition of cell growth measured after 48 hrs by MTT assay; conditions: A549, 48 h
HeLa = test: Antiproliferative activity against human HeLa cells assessed as inhibition of cell growth measured after 48 hrs by MTT assay

Row | SMILES | IC50 (SK-OV-3) | IC50 (B16-F10) | IC50 (HepG2) | IC50 (MDA-MB-231) | IC50 (A549) | IC50 (HeLa)
1 | COc1cc(Nc2cc(Nc3cccc(NC(=O)C4CC4)c3)ncn2)ccc1F | 42.7 nM | 199 nM | 342 nM | 107 nM | 218 nM | 65.9 nM
2 | COc1cccc(Nc2cc(Nc3cccc(NS(=O)(=O)C4CC4)c3)ncn2)c1 | 56.8 nM | 54.2 nM | 284 nM | 438 nM | 81.6 nM | 130 nM
3 | COc1cccc(Nc2cc(Nc3cccc(NC(=O)C4CCCCC4)c3)ncn2)c1 | 23.6 nM | 315 nM | 166 nM | > 1000 nM | 83.2 nM | 52.5 nM
4 | COc1cccc(Nc2cc(Nc3cccc(NC(=O)C4CC4)c3)ncn2)c1F | 26.8 nM | 181 nM | 313 nM | 31.4 nM | 4.8 nM | 45.7 nM
5 | COc1cccc(Oc2cc(Nc3cccc(NC(=O)C4CC4)c3)ncn2)c1 | 68.6 nM | 83.9 nM | 22.8 nM | 155 nM | 68.3 nM | 475 nM
6 | CCc1cccc(Nc2cc(Nc3cccc(NC(=O)C4CC4)c3)ncn2)c1 | 1.9 nM | 46.6 nM | 314 nM | 3.1 nM | 23.4 nM | 3.2 nM
7 | COc1cccc(Nc2nc(Nc3cccc(NC(=O)C4CC4)c3)c3ccsc3n2)c1 | > 1000 nM | > 1000 nM | > 1000 nM | > 1000 nM | > 1000 nM | > 1000 nM
8 | COc1cccc(Nc2nc(Nc3cccc(NC(=O)C4CC4)c3)nc3ccccc23)c1 | 864 nM | 172 nM | > 1000 nM | 122 nM | > 1000 nM | > 1000 nM
9 | COc1cccc(Nc2nc(Nc3cccc(NC(=O)C4CC4)c3)c3ccccc3n2)c1 | > 1000 nM | > 1000 nM | > 1000 nM | > 1000 nM | > 1000 nM | > 1000 nM
10 | O=C(Nc1cccc(Nc2cc(N3CCc4c3cccc4C(F)(F)F)ncn2)c1)C1CC1 | > 1000 nM | > 1000 nM | > 1000 nM | > 1000 nM | > 1000 nM | > 1000 nM
11 | COc1cccc(Nc2cc(Nc3cccc(C(=O)NC4CC4)c3)ncn2)c1 | > 1000 nM | > 1000 nM | > 1000 nM | > 1000 nM | > 1000 nM | > 1000 nM
12 | COc1cccc(Nc2cc(Nc3cccc(NC(=O)C4CC4)c3)nc(C)n2)c1 | 156 nM | 9.6 nM | 93.2 nM | > 1000 nM | > 1000 nM | 120 nM
13 | O=C(Nc1cccc(Nc2cc(N3CCOc4ccccc43)ncn2)c1)C1CC1 | 84.2 nM | > 1000 nM | 34.8 nM | 563 nM | > 1000 nM | 349 nM
14 | COc1cccc(Nc2nc(Nc3cccc(NC(=O)C4CC4)c3)nc3ccsc23)c1 | > 1000 nM | > 1000 nM | > 1000 nM | 610 nM | > 1000 nM | > 1000 nM
15 | COc1cccc(Nc2nc(Nc3cccc(NC(=O)C4CC4)c3)c3sccc3n2)c1 | > 1000 nM | > 1000 nM | > 1000 nM | > 1000 nM | > 1000 nM | > 1000 nM
16 | COc1cccc(Nc2cc(Nc3cccc(OC)c3)ncn2)c1 | > 1000 nM | > 1000 nM | > 1000 nM | > 1000 nM | > 1000 nM | > 1000 nM
17 | COc1cccc(Nc2cc(Nc3cccc(NS(=O)(=O)C4CCCCC4)c3)ncn2)c1 | 286 nM | > 1000 nM | > 1000 nM | > 1000 nM | > 1000 nM | > 1000 nM
18 | CC(=O)c1cccc(Nc2cc(Nc3cccc(NC(=O)C4CC4)c3)ncn2)c1 | 31.6 nM | 167 nM | 127 nM | 64.9 nM | 509 nM | 22.5 nM
19 | CCC(=O)Nc1cccc(Nc2cc(Nc3cccc(OC)c3)ncn2)c1 | 14.1 nM | 392 nM | 99.3 nM | > 1000 nM | 273 nM | 6.7 nM
20 | Cc1cccc2c1CCN2c1cc(Nc2cccc(NC(=O)C3CC3)c2)ncn1 | > 1000 nM | > 1000 nM | > 1000 nM | > 1000 nM | > 1000 nM | > 1000 nM
21 | CCOc1cccc(Nc2cc(Nc3cccc(NC(=O)C4CC4)c3)ncn2)c1 | 17.4 nM | 20.7 nM | 128 nM | 1.9 nM | 173 nM | 613 nM
22 | O=C(Nc1cccc(Nc2nc(Nc3cccc(C(F)(F)F)c3)nc3sccc23)c1)C1CC1 | > 1000 nM | > 1000 nM | > 1000 nM | > 1000 nM | > 1000 nM | > 1000 nM

Row | SMILES | IC50 (SK-OV-3) | IC50 (B16-F10) | IC50 (HepG2) | IC50 (MDA-MB-231) | IC50 (A549) | IC50 (HeLa)
23 | COc1cc(Nc2cc(Nc3cccc(NC(=O)C4CC4)c3)ncn2)ccc1Cl | 811 nM | 472 nM | 374 nM | 356 nM | 547 nM | 397 nM
24 | O=C(NCCCNc1cc(Nc2cccc(C(F)(F)F)c2)ncn1)C1CC1 | > 1000 nM | > 1000 nM | > 1000 nM | > 1000 nM | > 1000 nM | > 1000 nM
25 | O=C(Nc1cccc(Nc2nc(Nc3cccc(C(F)(F)F)c3)nc3ccsc23)c1)C1CC1 | > 1000 nM | > 1000 nM | > 1000 nM | > 1000 nM | > 1000 nM | > 1000 nM
26 | COc1ccc(C)c(Nc2cc(Nc3cccc(NC(=O)C4CC4)c3)ncn2)c1 | 56.9 nM | 2.3 nM | 35.2 nM | 48.8 nM | 2 nM | 17.9 nM
27 | O=C(Nc1cccc(Nc2nc(Nc3cccc(C(F)(F)F)c3)c3ccccc3n2)c1)C1CC1 | > 1000 nM | > 1000 nM | > 1000 nM | > 1000 nM | > 1000 nM | > 1000 nM
28 | COc1cccc(Nc2cc(Nc3cccc(NC(=O)C(C)(C)C)c3)ncn2)c1 | > 1000 nM | > 1000 nM | > 1000 nM | > 1000 nM | > 1000 nM | > 1000 nM
29 | COc1cccc(Nc2cc(Nc3cccc(NC(=O)C(C)C)c3)ncn2)c1 | 41.1 nM | > 1000 nM | > 1000 nM | 644 nM | 299 nM | > 1000 nM
30 | Cc1cc(NC(=O)C2CC2)cc(Nc2cc(Nc3cccc(C(F)(F)F)c3)ncn2)c1 | 31.7 nM | 443 nM | 201 nM | > 1000 nM | > 1000 nM | 499 nM
31 | COc1cccc(Nc2nc(Nc3cccc(NC(=O)C4CC4)c3)nc3sccc23)c1 | > 1000 nM | > 1000 nM | > 1000 nM | > 1000 nM | > 1000 nM | > 1000 nM
32 | COc1cccc(Nc2cc(Nc3ccc(NC(=O)C4CC4)cc3)ncn2)c1 | > 1000 nM | > 1000 nM | > 1000 nM | > 1000 nM | > 1000 nM | > 1000 nM
33 | O=C(Nc1cccc(Nc2cc(N3CCc4ccccc43)ncn2)c1)C1CC1 | > 1000 nM | > 1000 nM | > 1000 nM | > 1000 nM | > 1000 nM | > 1000 nM
34 | COc1cccc(Nc2cc(Nc3cccc(NC(=O)C4CCCC4)c3)ncn2)c1 | 9.6 nM | > 1000 nM | 158 nM | 105 nM | 198 nM | 41.5 nM
35 | O=C(Nc1cccc(Nc2nc(Nc3cccc(C(F)(F)F)c3)c3sccc3n2)c1)C1CC1 | > 1000 nM | > 1000 nM | > 1000 nM | > 1000 nM | > 1000 nM | > 1000 nM
36 | O=C(Nc1cccc(Nc2cc(Nc3cccc(C(F)F)c3)ncn2)c1)C1CC1 | 2.1 nM | 61.3 nM | 15.6 nM | 38.7 nM | 9.3 nM | 48.5 nM
37 | COc1cccc(Nc2cc(Nc3cccc(C(=O)NC4CCCCC4)c3)ncn2)c1 | > 1000 nM | > 1000 nM | > 1000 nM | > 1000 nM | > 1000 nM | > 1000 nM
38 | Cc1nc(Nc2cccc(NC(=O)C3CC3)c2)cc(Nc2cccc(C(F)(F)F)c2)n1 | 123 nM | 562 nM | 64.1 nM | > 1000 nM | > 1000 nM | > 1000 nM
39 | COc1cccc(Nc2cc(Nc3cccc(C(=O)NC4CCCC4)c3)ncn2)c1 | > 1000 nM | > 1000 nM | > 1000 nM | > 1000 nM | > 1000 nM | > 1000 nM
40 | COc1nc(Nc2cccc(NC(=O)C3CC3)c2)cc(Nc2cccc(C(F)(F)F)c2)n1 | > 1000 nM | > 1000 nM | > 1000 nM | > 1000 nM | > 1000 nM | > 1000 nM
41 | Cc1c(F)cccc1Nc1cc(Nc2cccc(NC(=O)C3CC3)c2)ncn1 | 31.6 nM | 17.8 nM | 429 nM | 23.4 nM | 27.9 nM | 62.2 nM
42 | O=C(Nc1cccc(Nc2nc(Nc3cccc(C(F)(F)F)c3)nc3ccccc23)c1)C1CC1 | > 1000 nM | > 1000 nM | > 1000 nM | > 1000 nM | > 1000 nM | > 1000 nM
43 | O=C(Nc1cncc(Nc2cc(Nc3cccc(C(F)(F)F)c3)ncn2)c1)C1CC1 | > 1000 nM | > 1000 nM | > 1000 nM | > 1000 nM | > 1000 nM | > 1000 nM
